# Key:
# [1] = system: Vascular Endothelial Growth Factor A (VEGF); assay: Tumor VEGF protein (ELISA) in HCT-116 colorectal cancer cell-derived xenograft; assay type: in vivo, mouse; settings: HCT-116 xenograft, approximately 4 weeks of treatment with 3 mg/kg or 6 mg/kg
# Protocol: (§1) Mice from groups 1, 2, 4 and 5 of the HCT-116 colorectal cancer model (TABLE 12, EXAMPLE 324) and MKN45 gastric cancer model (TABLE 14, EXAMPLE 325) were used to analyze tumor Vascular Endothelial Growth Factor A (VEGF) protein expression at the end of the experiment. Tumors homogenates were prepared using a 2× Lysis Buffer (RayBiotech Life, Norcross, GA, USA) according to manufacturer's instructions. VEGF was quantified in 50 micrograms tumor by ELISA (Human VEGF Quantikine ELISA Kit, R&D Systems) according to manufacturer's instructions.
# [2] = system: Vascular Endothelial Growth Factor A (VEGF); assay: Tumor VEGF protein (ELISA) in MKN45 gastric cancer cell-derived xenograft; assay type: in vivo, mouse; settings: approximately 3 weeks of treatment with 3 mg/kg or 6 mg/kg, effect less evident than in HCT-116
# Protocol: as §1
# [3] = system: 786-O; assay: 5-day cell proliferation assay (CTG); assay type: cell-based; settings: Homo sapiens, 786-0, 120 h, Kidney
# Protocol: (§2) For screening using a proliferation assay, the cells used were cultured at 37° C. with 5% CO2, except for those being cultured with L-15 medium (37° C. and 100% air, TABLE 7). Compound stock solutions (10 mM) were made in sterile water, aliquoted and stored at room temperature. Cisplatin was used as reference Control. Plastic consumables, culture media and supplements were purchased from well-known suppliers (TABLE 8).
# (§3) Cell seeding (day −1). When necessary, cells were trypsinized using standard methods (see e.g. example 01). Cells were collected and resuspended in 5-6 mL of appropriate culture medium, counted and diluted to the needed density. Fifty-four μl (microliter) cells were seeded per well in a 384-well plate. Extra four wells per cell line were seeded on an additional plate for Day 0 reading (baseline cell density). Cells were incubated at 37° C. overnight.
# (§4) Compound treatment and Day 0 reading (day 0). Tenfold final concentration of test compounds and Cisplatin were prepared in cell culture media (work dilutions). Six μl of work dilution solutions were dispensed into the corresponding wells in 384-well plates to bring the total volume up to 60 μl. Conditions were tested in triplicate. The plates were then incubated at 37° C. for five days. For the day 0 reading, 30 μl of CTG and 6 μl cell culture medium were added to the day 0 plates, contents mixed for 2 min on a plate shaker, and the plates incubated for 10 min at room temperature in the dark. Luminescence was recorded on an EnVision Multi Label Reader (2104-0010A, PerkinElmer, USA).
# (§5) Endpoint CTG reading (day 5). The amounts of cells in the plates was determined by endpoint CTG-test. Thirty μl of CTG were added to the 60 μl of cell culture per well, contents mixed for 2 min on a plate shaker, and the plates incubated for 10 min at room temperature in the dark. Luminescence was recorded on an EnVision Multi Label Reader.
# (§6) Data analysis. Fifty percent growth inhibition concentrations (GI50) were calculated based on percentage of control data (untreated cells) from each cell line (TABLE 5 (this example) and TABLE 6). Curves were fitted using a nonlinear regression model with a sigmoidal dose response. Examples of obtained curves are depicted in FIG. 2A-2F.
# [4] = system: Raji; assay: 5-day cell proliferation assay (CTG); assay type: cell-based; settings: Homo sapiens, 120 h, Lymphoma
# Protocol: as §2, §3, §4, §5, §6
# [5] = system: PC-3; assay: 5-day cell proliferation assay (CTG); assay type: cell-based; settings: Homo sapiens, 120 h, PC-3, Prostate
# Protocol: as §2, §3, §4, §5, §6
# [6] = system: BT-20; assay: 5-day cell proliferation assay (CTG); assay type: cell-based; settings: Homo sapiens, 120 h, BT-20, Breast
# Protocol: as §2, §3, §4, §5, §6
# [7] = system: KYSE-270; assay: 5-day cell proliferation assay (CTG); assay type: cell-based; settings: Homo sapiens, 120 h, KYSE-270, Oesophagus
# Protocol: as §2, §3, §4, §5, §6
# [8] = system: H4; assay: 5-day cell proliferation assay (CTG); assay type: cell-based; settings: Homo sapiens, 120 h, H4, Brain/Nerves
# Protocol: as §2, §3, §4, §5, §6
# [9] = system: HL-60; assay: 5-day cell proliferation assay (CTG); assay type: cell-based; settings: Homo sapiens, 120 h, HL-60, Leukemia
# Protocol: as §2, §3, §4, §5, §6
# [10] = system: Daudi; assay: 5-day cell proliferation assay (CTG); assay type: cell-based; settings: Homo sapiens, 120 h, Lymphoma
# Protocol: as §2, §3, §4, §5, §6
# [11] = system: MS751; assay: 5-day cell proliferation assay (CTG); assay type: cell-based; settings: Homo sapiens, 120 h, MS751, Cervix
# Protocol: as §2, §3, §4, §5, §6
# [12] = system: OVCAR-3; assay: 5-day cell proliferation assay (CTG); assay type: cell-based; settings: Homo sapiens, 120 h, OVCAR-3, Ovary
# Protocol: as §2, §3, §4, §5, §6
# [13] = system: SK-MEL28; assay: 5-day cell proliferation assay (CTG); assay type: cell-based; settings: Homo sapiens, SK-MEL-28, 120 h, SK-MEL28, Skin
# Protocol: as §2, §3, §4, §5, §6
# [14] = system: Kasumi-1; assay: 5-day cell proliferation assay (CTG); assay type: cell-based; settings: Homo sapiens, 120 h, Kasumi-1, Leukemia
# Protocol: as §2, §3, §4, §5, §6
# [15] = system: HCC2935; assay: 5-day cell proliferation assay (CTG); assay type: cell-based; settings: Homo sapiens, 120 h, HCC2935, Lung, highest tested concentration 10 μM
# Protocol: as §2, §3, §4, §5, §6
# [16] = system: prostate-specific antigen (PSA); assay: Serum PSA (ELISA) in the castration-resistant prostate cancer patient-derived xenograft mouse model; assay type: in vivo; settings: five mice with detectable tumors; daily 10 and 3 mg/kg (two mice) or 6 mg/kg (three mice); blood 3 h after the last dose
# Protocol: Mice from groups 1, 3 and 4 of the CPRC prostate patient-derived xenograft model (TABLE 9, EXAMPLE 322) were used to analyze serum PSA at the end of the experiment. […] PSA was detected by ELISA (Human Kallikrein 3/PSA Quantikine ELISA Kit, R&D Systems, Minneapolis, MN, USA) according to manufacturer's instructions. Minimal relative expected PSA-levels were calculated based on minimal PSA/tumor size ratio of vehicle-treated mice.
# [17] = system: MKN45 human gastric adenocarcinoma cells; assay: Cell-derived xenograft mouse model for gastric cancer (MKN45 CDX); assay type: in vivo; settings: p.o.; for Tumor Size day 29: MKN45 CDX, female BALB/c nude mice, Mean ± SEM; for T/C: day 29, tumor-to-control ratio (volume/volume)
# Protocol: Female BALB/c nude mice (8-9 weeks of age) were injected with MKN45 human gastric adenocarcinoma cells. The cells were inoculated subcutaneously into the left flank of 48 mice. When tumors reached a mean volume of approximately 103 mm^3, mice were randomly assigned to eight treatment groups of each six mice (TABLE 16). Body weights were measured three times weekly prior to the initiation of dosing and daily thereafter. Tumor burden was assessed by caliper measurement twice weekly. Dosing breaks were applied when tolerability issues arose (body weight loss>10%). The study was terminated four weeks post first dosing. The experiment was performed in the Crown Bioscience Ltd. (Beijing) testing facility (Ground Floor, Light Muller Building, Changping Sector of Zhongguancun Scientific Park, No. 21 Huoju Road, Changping District, Beijing, CHN).
structure (smiles),measurement,setting,value
"CC(C)C[C@@H]1NCCN([C@@H](CC(C)C)C(=O)N2CCC3(C[C@@H]2C)OCC(CN2CCCC2)CO3)C1=O (stereo partly drawn) [Compound 258, (3S)-1-[(2S)-4-methyl-1-oxo-1-[(3s,6s,8S)-8-methyl-3-(pyrrolidin-1-ylmethyl)-1,5-dioxa-9-azaspiro[5.5]undec-an-9-yl]pentan-2-yl]-3-(2-methylpropyl)piper-azin-2-one (^≠), isomer Z]",tumor VEGF protein levels,[1],significantly reduced
same,tumor VEGF protein levels,[2],significantly reduced
same,GI50,[3],28 nM
same,GI50,[4],28 nM
same,GI50,[5],13 nM
same,GI50,[6],15 nM
same,GI50,[7],44 nM
same,GI50,[8],11 nM
same,GI50,[9],5 nM
same,GI50,[10],80 nM
same,GI50,[11],51 nM
same,GI50,[12],44 nM
same,GI50,[13],50 nM
same,GI50,[14],19 nM
same,GI50,[15],> 10000 nM
same,serum prostate-specific antigen (PSA) levels versus minimal relative expected PSA-levels,[16],clear reduction
same,Tumor Size day 29,"[17]; 3 mg/kg, QD",428.0 ± 52.5 mm^3
same,T/C,"[17]; 3 mg/kg, QD",36.0%
same,Tumor Size day 29,"[17]; 6 mg/kg, QD",186.9 ± 17.3 mm^3
same,T/C,"[17]; 6 mg/kg, QD",15.7%
same,Tumor Size day 29,"[17]; 20 mg/kg, BIW",763.4 ± 84.5 mm^3
same,T/C,"[17]; 20 mg/kg, BIW",64.2%
"CC(C)C[C@@H]1NCCN([C@@H](CC(C)C)C(=O)N2CCC3(C[C@@H]2C)OCC(CN2CCC2)CO3)C1=O (stereo partly drawn) [Compound 284, (3S)-1-[(2S)-4-methyl-1-oxo-1-[(3s,6s,8S)-3-(azetidin-1-ylmethyl)-8-methyl-1,5-dioxa-9-azaspiro[5.5]undec-an-9-yl]pentan-2-yl]-3-(2-methylpropyl)piper-azin-2-one (^≠), isomer Z]",Tumor Size day 29,"[17]; 3 mg/kg, QD",709.0 ± 55.6 mm^3
same,T/C,"[17]; 3 mg/kg, QD",59.6%
same,Tumor Size day 29,"[17]; 6 mg/kg, QD",592.6 ± 109.7 mm^3
same,T/C,"[17]; 6 mg/kg, QD",49.8%

# From US20250115571A1, “OXOPIPERAZINE DERIVATIVES” (Inthera Bioscience AG, priority 2017, published 2025)
